The text below walks through data of paper PMC4928094, “The first characterization of multidrug and toxin extrusion (MATE/SLC47) proteins in zebrafish (Danio rerio)” (Scientific Reports, 2016).

For data set [1], the target named is zebrafish Mate8 (Danio rerio, UniProt A0A8M6YZ09). The data set can be described thus: Uptake of fluorescent dyes by HEK293T cells overexpressing zebrafish Mate8. As to conditions: dye uptake, mean ± SD, NT = no transport found. As for the experimental part:
(§1) HEK293T cells were transiently transfected as described previously[31] using the PEI (polyethyleneimine) reagent in 48-well plates. Cells were in parallel transfected with pcDNA3.1/His/LacZ plasmid and transfection efficiency was evaluated 24 h after transfection with the LacZ staining protocol.
(§2) HEK293T cells overexpressing respective single zebrafish Mate transporter were used for further experiments. Cell uptake of all substrates except DAPI was measured in sodium based transport medium (145 mM NaCl, 3 mM KCl, 1 mM CaCl2, 0.5 mM MgCl2, 5 mM glucose and 10 mM Tris, pH 8.4). Briefly, after 5 minute incubation period, the cells were rapidly washed two times with ice-cold phosphate-buffered saline (PBS), lysed in 250 μL of 0.1% sodium dodecyl sulphate for 30 min and transferred to the black 96-well plates where fluorescence was measured using the microplate reader (Infinite M200, Tecan, Salzburg, Austria) at following excitation and emission wavelengths: ASP^+, 450/590 nm; EtBr, 535/590 nm; Rh123, 485/530 nm; berberine, 355/540 nm; amiloride, 366/418 nm. […] DAPI fluorescence was measured at 360 and 460 nm […], respectively. The uptake into vector-transfected HEK293T cells (mock cells) was subtracted to obtain transporter-specific uptake.
(§3) Calibration curves for all substrates were generated in 0.1% SDS and in the cell matrix dissolved in 0.1% SDS. […] Using the calibration curves, uptake was expressed as pmol of substrate per mg of protein per minute. Total cell protein content was determined according to the Bradford method.
(§4) All assays were performed in 3–5 independent experiments run in triplicates. Data shown on related figures represent mean ± standard errors (SE) or standard deviations (SD). All calculations were performed using GraphPad Prism 5.00 for Windows (GraphPad Software, San Diego, California, USA) as described below. The kinetic parameters, Km and Vmax values were calculated using the Michaelis-Menten equation, […]

Data set [2] deals with zebrafish Mate4 (Danio rerio, UniProt U3Q0C3). The experiment in a line: Uptake of fluorescent dyes by HEK293T cells overexpressing zebrafish Mate4. The conditions noted are these: dye uptake, mean ± SD, NT = no transport found. As for the experimental part: as §1, §2, §3, §4
Chain of zebrafish Mate4 (U3Q0C3 entry or part of it): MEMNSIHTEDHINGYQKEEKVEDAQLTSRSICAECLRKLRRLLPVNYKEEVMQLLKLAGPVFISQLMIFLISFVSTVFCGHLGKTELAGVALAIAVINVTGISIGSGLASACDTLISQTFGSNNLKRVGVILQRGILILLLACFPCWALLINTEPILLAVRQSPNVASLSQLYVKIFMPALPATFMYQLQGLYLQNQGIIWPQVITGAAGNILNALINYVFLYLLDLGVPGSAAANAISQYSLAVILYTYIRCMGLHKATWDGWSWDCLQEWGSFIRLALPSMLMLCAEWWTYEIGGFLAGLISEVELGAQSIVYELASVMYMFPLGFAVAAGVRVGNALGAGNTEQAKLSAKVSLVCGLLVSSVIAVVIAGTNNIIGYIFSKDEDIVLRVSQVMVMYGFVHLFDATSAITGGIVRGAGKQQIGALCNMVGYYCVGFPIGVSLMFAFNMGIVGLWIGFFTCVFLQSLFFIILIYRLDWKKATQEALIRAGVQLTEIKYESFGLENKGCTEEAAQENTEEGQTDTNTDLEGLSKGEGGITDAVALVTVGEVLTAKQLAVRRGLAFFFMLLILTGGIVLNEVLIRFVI
The target in data set [3] is zebrafish Mate7 (Danio rerio, UniProt U3PTD6). The data set can be described thus: Uptake of fluorescent dyes by HEK293T cells overexpressing zebrafish Mate7. The conditions noted are these: dye uptake, mean ± SD. On the procedure:
as §1, §2, §3, §4

Data set [4] concerns the target zebrafish Mate6 (Danio rerio, UniProt A1L2E7). The data set can be described thus: Uptake of fluorescent dyes by HEK293T cells overexpressing zebrafish Mate6. The conditions noted are these: dye uptake, mean ± SD. On the procedure: as §1, §2, §3, §4
Data set [5] addresses T1, zebrafish Mate3 (Danio rerio, UniProt A1L1P9).
T1 sequence (A1L1P9 1-590): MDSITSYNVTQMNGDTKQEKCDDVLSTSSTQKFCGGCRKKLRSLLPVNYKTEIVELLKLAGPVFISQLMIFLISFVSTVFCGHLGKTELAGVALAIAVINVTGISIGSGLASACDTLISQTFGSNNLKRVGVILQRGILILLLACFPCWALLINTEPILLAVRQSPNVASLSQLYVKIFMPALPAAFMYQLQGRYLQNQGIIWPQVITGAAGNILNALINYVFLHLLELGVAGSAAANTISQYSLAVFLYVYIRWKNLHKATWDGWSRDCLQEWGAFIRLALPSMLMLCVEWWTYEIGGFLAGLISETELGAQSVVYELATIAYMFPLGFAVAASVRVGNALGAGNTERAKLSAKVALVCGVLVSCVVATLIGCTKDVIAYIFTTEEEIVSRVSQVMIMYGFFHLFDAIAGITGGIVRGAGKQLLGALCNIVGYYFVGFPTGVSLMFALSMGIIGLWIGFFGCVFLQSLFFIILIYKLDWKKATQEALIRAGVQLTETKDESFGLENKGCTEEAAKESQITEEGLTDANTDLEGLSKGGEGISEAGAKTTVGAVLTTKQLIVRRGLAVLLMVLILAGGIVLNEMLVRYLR
The data set can be described thus: Uptake of fluorescent dyes by HEK293T cells overexpressing zebrafish Mate3. As to conditions: dye uptake, mean ± SD; for Km: triplicate, representative experiment. As for the experimental part: as §1, §2, §3
All assays were performed in 3–5 independent experiments run in triplicates. Data shown on related figures represent mean ± standard errors (SE) or standard deviations (SD). All calculations were performed using GraphPad Prism 5.00 for Windows (GraphPad Software, San Diego, California, USA) as described below. The kinetic parameters, Km and Vmax values were calculated using the Michaelis-Menten equation,
where V is velocity (picomoles of substrate per milligram of proteins per minute), Vmax is maximal velocity, [S] is substrate concentration and Km is the Michaelis Menten constant. The uptake into vector-transfected HEK293 cells was subtracted to obtain transporter-specific uptake.

Substrate in data set [6]: COC(=O)c1ccccc1-c1c2ccc(=N)cc-2oc2cc(N)ccc12
The data set can be described thus: cells, lysate or membranes. The conditions noted are these: other: Mate7; dye uptake, HEK293T; mean ± SD.

Substrate in data set [7]: N=C(N)NC(=O)c1nc(Cl)c(N)nc1N
The data set can be described thus: cells, lysate or membranes. The conditions noted are these: other: Mate7; dye uptake, HEK293T; mean ± SD.

Substrate in data set [8]: CN(C)c1ccc(/C=C/c2cc[n+](C)cc2)cc1
The data set can be described thus: cells, lysate or membranes. The conditions noted are these: other: Mate7; dye uptake, HEK293T; mean ± SD.

Substrate in data set [9]: COc1ccc2cc3[n+](cc2c1OC)CCc1cc2c(cc1-3)OCO2
The data set can be described thus: cells, lysate or membranes. The conditions noted are these: other: Mate7; dye uptake, HEK293T; mean ± SD.

Chain of zebrafish Mate6 (A1L2E7 entry or part of it): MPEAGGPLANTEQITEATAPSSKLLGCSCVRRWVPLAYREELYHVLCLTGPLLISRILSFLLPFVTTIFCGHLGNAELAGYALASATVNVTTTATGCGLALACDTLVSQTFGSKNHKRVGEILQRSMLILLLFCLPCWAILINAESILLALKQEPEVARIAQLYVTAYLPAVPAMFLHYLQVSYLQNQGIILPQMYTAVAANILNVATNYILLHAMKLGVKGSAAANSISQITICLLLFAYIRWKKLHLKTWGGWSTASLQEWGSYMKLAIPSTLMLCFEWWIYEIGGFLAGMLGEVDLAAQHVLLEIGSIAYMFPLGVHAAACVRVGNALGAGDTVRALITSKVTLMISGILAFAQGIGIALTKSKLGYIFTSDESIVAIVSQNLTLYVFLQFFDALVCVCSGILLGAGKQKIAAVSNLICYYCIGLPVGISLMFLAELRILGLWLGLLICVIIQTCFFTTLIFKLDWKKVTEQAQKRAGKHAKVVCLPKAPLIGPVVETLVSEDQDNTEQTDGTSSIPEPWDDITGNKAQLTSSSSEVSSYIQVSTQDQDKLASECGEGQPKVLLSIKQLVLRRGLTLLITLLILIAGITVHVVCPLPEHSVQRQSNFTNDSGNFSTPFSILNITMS
Chain of zebrafish Mate8 (A0A8M6YZ09 entry or part of it): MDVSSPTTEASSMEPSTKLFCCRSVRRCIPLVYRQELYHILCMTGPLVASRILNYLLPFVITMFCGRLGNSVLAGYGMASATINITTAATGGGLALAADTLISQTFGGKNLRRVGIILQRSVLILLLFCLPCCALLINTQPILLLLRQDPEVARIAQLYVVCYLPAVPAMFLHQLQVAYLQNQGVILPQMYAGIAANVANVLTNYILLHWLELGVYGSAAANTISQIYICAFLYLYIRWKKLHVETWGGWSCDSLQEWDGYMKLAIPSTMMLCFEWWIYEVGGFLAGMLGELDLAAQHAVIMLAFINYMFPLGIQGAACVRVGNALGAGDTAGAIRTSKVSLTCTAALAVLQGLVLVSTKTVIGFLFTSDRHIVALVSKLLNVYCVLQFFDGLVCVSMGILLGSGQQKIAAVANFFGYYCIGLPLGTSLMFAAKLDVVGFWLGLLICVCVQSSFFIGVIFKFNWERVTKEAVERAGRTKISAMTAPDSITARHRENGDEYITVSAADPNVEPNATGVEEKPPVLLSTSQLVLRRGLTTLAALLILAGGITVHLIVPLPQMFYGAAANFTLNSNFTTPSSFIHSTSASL

As to `COC(=O)c1ccccc1-c1c2ccc(=N)cc-2oc2cc(N)ccc12` [Rh123, rhodamine 123], the vmax in [1] turned out to be 12.3 ± 0.61 pmol/mg protein/min; in data set [2], 1.03 ± 0.03 pmol/mg protein/min; in data set [3], 4.79 ± 0.17 pmol/mg protein/min; in data set [4], 55.6 ± 1.48 pmol/mg protein/min; in [5], 105 ± 5.16 pmol/mg protein/min.
In the case of `CC[n+]1c(-c2ccccc2)c2cc(N)ccc2c2ccc(N)cc21` [EtBr, ethidium bromide], in [5], the vmax is 825 ± 25.5 pmol/mg protein/min and the Km (commonly the substrate concentration at which the rate is half of its maximum) stood at 5.56 ± 0.5 µM.
Turning to `N=C(N)c1ccc(-c2cc3ccc(C(=N)N)cc3[nH]2)cc1` [DAPI, 4′,6-diamidino-2-phenylindole], the Km in data set [1] was 0.55 ± 0.07 µM; in data set [2] it was 0.29 ± 0.04 µM; in data set [3] it was 1.44 ± 0.19 µM; in data set [4] it was 0.26 ± 0.05 µM; in data set [5], 2.83 ± 0.34 µM. Further, the vmax in data set [1] worked out at 24.4 ± 0.70 pmol/mg protein/min; in [2], 47.7 ± 2.27 pmol/mg protein/min; in data set [3], 193 ± 9.15 pmol/mg protein/min; in data set [4], 44.3 ± 1.80 pmol/mg protein/min; in data set [5] it was 436 ± 21.8 pmol/mg protein/min.

B1: zebrafish Mate7 (Danio rerio) (protein)
chain: MDVSSPGTDNLSMEPSAKLFCCGFMRRCIPLVYREELYHILRMTGPLLVCRFLNFLLFFVVTMFCGRLGNTVLAGYAMASATINVTAAATGLGLALACDTLVSQTFGSKNLLRVGIILQRGIVILTLFSLPCWALLVNTQPLLLYLGQEPEVARIAQLYVVVYLPAIPAMFLYQLQLSYLQNQGVIKPQMYASAVANVANVIANYFLLYWWDFGVYGSAAANTFAQVFNCFALFCFIRWQKLHEKTWGGWSLEALQDWGSYMKLAIPSTLMTCFEWWIYEVGGFLAGMLSEVDLAAQHVVIMLAYINYMIPLGMQGAACVRVGNALGAGETAAAILTSKVSLISAAVIAIIQGFVLGSTKTVIGYIFTSDESITELVSQLLNIYCPLQFFNGILCVGMGVLLGTGQQKIAAIANLFGYYCVGLPSSIVLMFTAGLQVAGFWLGLLIAVFLLAIFFTVAIFKLNWKKMTEEAIARTGKSANGAANGTMTTEFCSNHRNSFYQVVLNAENGNGYMVVSSQDQDERLNSTAVPEEPNVTGVEEKPPVLLSTTQLVLRRGLTTVAALLILAVGIIIHLTVPLPQVSYGAGANYTVDSNFTTANPIYSTSFI
Regarding B1, the Michaelis-Menten constant (Km) was 0.22 ± 0.03 µM in [6], 20.6 ± 4.20 µM in [7], 3.51 ± 0.27 µM in data set [8] and 1.76 ± 0.38 µM in data set [9]. In addition, the Vmax in data set [7] turned out to be 19.8 ± 1.84 pmol/mg protein/min; in data set [8], 52.3 ± 1.26 pmol/mg protein/min; in data set [9] it was 28.0 ± 2.39 pmol/mg protein/min.
